Measured values from ChEMBL document CHEMBL4270579, “Structure-activity relationship and conformational studies of the natural product cyclic depsipeptides YM-254890 and FR900359” (Eur J Med Chem, 2018).
*1 amine or outer side, *2 acyl side, *3 side chain or, on linkers, in order; H or OH if unused. Where a SMILES comes first, the peptide text is derived from it. Bridges are numbered along the chain shown (N, C = ends). [ ]: non-standard residue; d: D form. Leu(3R-O(AcLeu(3R-OH))) = CC(=O)N[C@H](C(=O)O[C@H](C(C)C)[C@H](N)C(=O)O)[C@H](O)C(C)C; X1 = CC(C)[C@@H](O[*:3])[C@H](N[*:1])C(=O)[*:2]; NMeT = CN[C@H](C(=O)O)[C@@H](C)O; dPhLac = O=C(O)[C@H](O)Cc1ccccc1; NMeA = CN[C@@H](C)C(=O)O; NMeDha = C=C(NC)C(=O)O

Experiments:
[1] = target: T1, Guanine nucleotide-binding protein subunit alpha-11 (Homo sapiens, UniProt P29992); assay: Inhibition of recombinant human Gq/11 coupled N-terminal 3His-tagged M1 receptor expressed in CHOK1 cells assessed as reduction in carbachol-induced IP1 accumulation pretreated for 1 hr followed by carbachol addition and subsequent incubation for 1 hr at 37 degC measured after 15 mins at room temperature by HTRF assay; format: cell-based
T1 sequence (P29992 whole entry): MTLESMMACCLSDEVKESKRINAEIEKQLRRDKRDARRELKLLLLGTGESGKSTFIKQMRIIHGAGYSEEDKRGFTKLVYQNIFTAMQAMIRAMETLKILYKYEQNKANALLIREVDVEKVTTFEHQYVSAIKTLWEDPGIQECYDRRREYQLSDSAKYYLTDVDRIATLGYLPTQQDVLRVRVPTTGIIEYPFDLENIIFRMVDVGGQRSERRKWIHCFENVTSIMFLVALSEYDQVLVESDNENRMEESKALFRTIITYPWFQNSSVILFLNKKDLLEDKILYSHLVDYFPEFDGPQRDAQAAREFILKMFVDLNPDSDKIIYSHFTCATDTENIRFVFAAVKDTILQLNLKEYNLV

[2] = target: Guanine nucleotide-binding protein G(s) subunit alpha isoforms XLas (Homo sapiens, UniProt Q5JWF2); assay: Inhibition of Gs coupled adrenergic beta2 receptor in HEK293 cells assessed as reduction in isoproterenol-induced cAMP production pretreated for 1 hr followed by isoproterenol addition and measured after 30 mins by FRET assay; format: cell-based
Chain of Guanine nucleotide-binding protein G(s) subunit alpha isoforms XLas (Q5JWF2 whole entry, canonical isoform): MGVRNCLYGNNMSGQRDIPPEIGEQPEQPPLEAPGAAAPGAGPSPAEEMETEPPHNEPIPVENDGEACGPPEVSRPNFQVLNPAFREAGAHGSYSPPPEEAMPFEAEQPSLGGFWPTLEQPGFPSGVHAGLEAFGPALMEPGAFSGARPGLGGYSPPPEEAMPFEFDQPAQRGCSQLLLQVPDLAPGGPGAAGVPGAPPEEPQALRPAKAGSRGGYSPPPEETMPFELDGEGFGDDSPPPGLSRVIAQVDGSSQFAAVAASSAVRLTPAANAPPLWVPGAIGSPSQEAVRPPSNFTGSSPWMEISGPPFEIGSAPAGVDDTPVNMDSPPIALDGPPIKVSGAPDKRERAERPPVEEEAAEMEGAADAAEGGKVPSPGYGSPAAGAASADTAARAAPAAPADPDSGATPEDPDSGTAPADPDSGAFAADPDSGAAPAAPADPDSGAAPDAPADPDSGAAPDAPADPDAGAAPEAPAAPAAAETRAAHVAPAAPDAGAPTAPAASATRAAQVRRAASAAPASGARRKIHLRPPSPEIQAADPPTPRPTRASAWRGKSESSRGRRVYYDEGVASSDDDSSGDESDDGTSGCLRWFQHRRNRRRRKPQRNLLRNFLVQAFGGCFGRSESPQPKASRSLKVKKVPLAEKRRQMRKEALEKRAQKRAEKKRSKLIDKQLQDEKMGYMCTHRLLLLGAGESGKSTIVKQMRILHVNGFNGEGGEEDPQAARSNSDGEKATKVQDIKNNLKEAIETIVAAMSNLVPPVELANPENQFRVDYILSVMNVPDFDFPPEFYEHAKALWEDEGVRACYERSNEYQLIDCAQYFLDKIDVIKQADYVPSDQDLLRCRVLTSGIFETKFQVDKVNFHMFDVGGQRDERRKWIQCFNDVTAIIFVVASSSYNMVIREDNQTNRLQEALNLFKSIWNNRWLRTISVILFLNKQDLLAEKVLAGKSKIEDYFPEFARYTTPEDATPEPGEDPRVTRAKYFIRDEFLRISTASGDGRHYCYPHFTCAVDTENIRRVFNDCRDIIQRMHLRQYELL

Row | Structure (SMILES) | IC50 [1] | IC50 [2]
1 | C=C1C(=O)N[C@@H](C)C(=O)N(C)[C@@H](C)C(=O)N[C@@H]([C@H](OC(=O)[C@@H](NC(C)=O)[C@H](O)C(C)C)C(C)C)C(=O)N(C)[C@@H]([C@@H](C)OC)C(=O)O[C@@H](C)[C@H](NC(C)=O)C(=O)O[C@H](Cc2ccccc2)C(=O)N1C | > 50000 nM | > 100 µM
2 | C=C1C(=O)N[C@@H](C)C(=O)N(C)[C@@H](C)C(=O)N[C@@H]([C@H](OC(=O)[C@@H](NC(C)=O)[C@H](O)C(C)C)C(C)C)C(=O)N(C)[C@@H]([C@@H](C)OC)C(=O)O[C@H](C)[C@H](NC(C)=O)C(=O)O[C@H](Cc2ccccc2)C(=O)N1C | 150 nM | > 100 µM
3 | C=C1C(=O)N[C@H](C)C(=O)N(C)[C@@H](C)C(=O)N[C@@H]([C@H](OC(=O)[C@@H](NC(C)=O)[C@H](O)C(C)C)C(C)C)C(=O)N(C)[C@@H]([C@@H](C)OC)C(=O)O[C@H](C)[C@H](NC(C)=O)C(=O)O[C@H](Cc2ccccc2)C(=O)N1C | 36600 nM | –
4 | C=C1C(=O)N[C@@H](C)C(=O)N(C)[C@@H](C)C(=O)N[C@@H]([C@H](OC(=O)[C@@H](NC(C)=O)[C@H](O)C(C)C)C(C)C)C(=O)N(C)[C@@H]([C@@H](C)OC)C(=O)O[C@H](C(C)C)[C@H](NC(C)=O)C(=O)O[C@H](Cc2ccccc2)C(=O)N1C (Ac-[X1][dPhLac][NMeDha]A[NMeA][Leu(3R-O(AcLeu(3R-OH)))][NMeT](Me); ester 1-C) | 310 nM | > 100 µM

Second part, the compound after the results:

Row | IC50 [1] | IC50 [2] | Structure (SMILES)
5 | 880 nM | > 100 µM | C=C1C(=O)N[C@@H](C)C(=O)N(C)[C@@H](C)C(=O)N[C@@H]([C@H](OC(=O)[C@@H](NC(=O)CCCCC)[C@H](O)C(C)C)C(C)C)C(=O)N(C)[C@@H]([C@@H](C)OC)C(=O)O[C@H](C)[C@H](NC(C)=O)C(=O)O[C@H](Cc2ccccc2)C(=O)N1C
6 | > 50000 nM | > 100 µM | CO[C@H](C)[C@H]1C(=O)O[C@H](C)[C@H](NC(C)=O)C(=O)O[C@H](CC(C)C)C(=O)N(C)[C@H](CO)C(=O)N[C@@H](C)C(=O)N(C)[C@@H](C)C(=O)N[C@@H]([C@H](OC(=O)[C@@H](NC(C)=O)[C@H](O)C(C)C)C(C)C)C(=O)N1C
7 | 1890 nM | > 100 µM | C=C1C(=O)N[C@@H](C)C(=O)N(C)[C@@H](C)C(=O)N[C@@H]([C@H](OC(=O)[C@@H](NC(C)=O)[C@H](O)C(C)C)C(C)C)C(=O)N(C)[C@@H]([C@@H](C)OC)C(=O)OC[C@H](NC(C)=O)C(=O)O[C@H](Cc2ccccc2)C(=O)N1C
8 | 3690 nM | > 100 µM | C=C1C(=O)N[C@@H](C)C(=O)N(C)[C@@H](C)C(=O)N[C@@H]([C@H](OC(=O)[C@@H](NC(C)=O)[C@H](O)C(C)C)C(C)C)C(=O)N(C)[C@@H]([C@@H](C)OC)C(=O)O[C@H](C)[C@H](NC(C)=O)C(=O)O[C@H](CC(C)C)C(=O)N1C
9 | 2340 nM | > 100 µM | C=C1C(=O)N[C@@H](C)C(=O)N(C)[C@@H](C)C(=O)N[C@@H]([C@H](OC(=O)[C@@H](NC(=O)c2ccccc2)[C@H](O)C(C)C)C(C)C)C(=O)N(C)[C@@H]([C@@H](C)OC)C(=O)O[C@H](C)[C@H](NC(C)=O)C(=O)O[C@H](Cc2ccccc2)C(=O)N1C
